# Key:
# 4T1 cells = test: Extracellular vesicle concentration, Nanosight nanoparticle analyzer, 4T1 cells; type: cell-based, mouse; conditions: 1 μM
# Protocol: (§1) The current PD-L1 and PD1 therapies apply PD-L1 or PD1 monoclonal antibodies to block the PD-L1/PD1 signaling, which results in cytotoxic T cells recognizing and killing the tumor cells. […] First, flow cytometry-based quantification of plasma membrane levels of PD-L1 in 4T1 cells treated with or without 6J1 (1 μM) for 24 h. 4T1 cells are treated with or without 6J1 (1 μM) for 24 h. The supernatant is collected, and the concentration of extracellular vesicle is determined using a Nanosight nanoparticle analyzer in FIG. 8b. The exosomes are also collected and subjected to western blot analysis of the EVs marker and PD-L1 in FIG. 8c.
# To assess whether the in vivo antitumor growth effect of 6J1 is related to its effect on PD-L1 in 4T1 cells, inventors knock out PD-L1 via CRISPR/Cas9 in 4T1 cells (FIG. 10a). 4T1-NC or 4T1-PD-L1 knockout cells are treated with or without 6J1 (1 μM) for 24 h. The supernatant is collected, and the concentration of extracellular vesicle is determined using a Nanosight nanoparticle analyzer. The exosomes are also collected and subjected to western blot analysis of the EVs marker and PD-L1. […] Inventors then transplant control or PD-L1-knockout 4T1 cells into the fat pad of syngeneic female Balb/c mice. The mice are randomly divided (n=5 per group) and treated with either buffer or 6J1 (30 mg/kg, daily) via oral gavage.
# Therefore, it is possible that the increased exosomal PD-L1 secretion induced by 6J1 may still suppress the tumor-infiltrating T cell cytotoxicity in vivo, even though 6J1 reduces the cell surface expression level of PD-L1 on the tumor cells. To evaluate the role of exosomal PD-L1 in the tumor microenvironment and tumor progression in mice, inventors knock out Rab27a in 4T1 cells to inhibit the secretion of exosomes. 4T1-shNC or 4T1-shRab27A cells are treated with or without 6J1 (1 μM). The supernatant is collected, and the concentration of extracellular vesicle is determined using a Nanosight nanoparticle analyzer. […] Inventors analyze the plasma membrane levels of PD-L1 in 4T1-shNC or 4T1-shRab27A cells treated with or without 6J1 (1 μM). […]
# PD-L1 = test: Plasma membrane PD-L1 level in 4T1 cells (flow cytometry); type: cell-based, mouse; conditions: 1 μM
# Protocol: as §1
# Therefore, it is possible that the increased exosomal PD-L1 secretion induced by 6J1 may still suppress the tumor-infiltrating T cell cytotoxicity in vivo, even though 6J1 reduces the cell surface expression level of PD-L1 on the tumor cells. To evaluate the role of exosomal PD-L1 in the tumor microenvironment and tumor progression in mice, inventors knock out Rab27a in 4T1 cells to inhibit the secretion of exosomes. 4T1-shNC or 4T1-shRab27A cells are treated with or without 6J1 (1 μM). The supernatant is collected, and the concentration of extracellular vesicle is determined using a Nanosight nanoparticle analyzer. […] Inventors analyze the plasma membrane levels of PD-L1 in 4T1-shNC or 4T1-shRab27A cells treated with or without 6J1 (1 μM). […] Next, control or Rab27a-knockout 4T1 cells are orthotopically transplanted into syngeneic fat pads of female Balb/c. The mice are randomly divided (n=5 per group) and treated with either buffer or 6J1 (30 mg/kg, daily) via oral gavage. […] Inventors also perform the immunostaining of CD8 and Granzyme B in the tumor sections. […] Since enhanced antitumor immunity leads to increased apoptosis in tumors, inventors assess the levels of cleaved caspase3 (CCA3), one of the markers of apoptosis, in tumor sections as well.
# Finally, inventors assess the combinatory effects of 6J1 with GW4869, an exosome secretion inhibitor, in the aforementioned orthotopic mammary carcinoma mouse models. […]
# Rab27a = target: T1, Rab27a (Homo sapiens, UniProt P51159); test: GST-SHD pulldown assay of Rab27a activity; type: cell-based; conditions: HeLa cells, 1 μM
# T1 construct: western blot analysis of Rab27a in HeLa cells treated with or without 6J1 (1 μM) through a GST-SHD pulldown assay; endogenous in cells; host or cells: HeLa cells
# T1 sequence (P51159 1-221): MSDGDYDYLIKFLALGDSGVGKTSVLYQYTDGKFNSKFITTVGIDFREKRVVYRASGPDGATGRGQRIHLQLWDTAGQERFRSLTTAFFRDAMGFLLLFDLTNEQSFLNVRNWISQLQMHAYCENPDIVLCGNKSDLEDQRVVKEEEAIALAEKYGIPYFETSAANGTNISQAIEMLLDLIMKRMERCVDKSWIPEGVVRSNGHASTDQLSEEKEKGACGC
# Protocol: It has previously been shown that interfering with endosomal trafficking promotes exosome secretion. Moreover, PD-L1 has been reported to be enriched in exosomes and secreted outside the cell. Thus, inventors speculate that 6J1 may induce the secretion of the PD-L1 trapped in the endosomal compartments via exosomes. To determine whether 6J1 may induce the secretion of PD-L1 via exosomes, HeLa cells are treated with or without 6J1 (1 μM) for 24 h. The supernatant is collected. Inventors purify the exosomes from the supernatant of HeLa cells by sequential centrifugation. The concentration of extracellular vesicle is determined using a Nanosight nanoparticle analyzer. And HeLa cells are treated with or without 6J1 (1 μM) for 48 h. The cell and supernatant are collected for Western Blot analysis. […] Moreover, the activity of Rab27a in HeLa cells treated with or without 6J1 (1 μM) is examined with a GST-SHD pulldown assay.
# [1] = system: HeLa, A549 and MDA-MB-231 cell lines; test: Cytotoxicity, Hochest 33342 cell number; type: cell-based; conditions: 24 h or 48 h
# Protocol: The inventors also test the cytotoxicity of 6J1 in several cancer cell lines, HeLa, A549 and MDA-MB-231 cell lines. Cells are grown in 96-well plates in triplicate and treated with or without 6J1 at the concentrations of 0, 0.01, 0.1, 1, 10 and 100 μM indicated for 24 h or 48 h. They are then stained with propidium iodide (PI) or Hochest 33342 to measure the cell death ratio and cell number, respectively. […] Inventors also test the cytotoxicity of 6J1 in 4T1 cells. 4T1 cells are plated in 96-well plates in triplicate and treated with or without 6J1 at the concentrations of 0, 0.01, 0.1, 1, 5, 10, 20, 40, 80 and 100 μM indicated for 24 h or 48 h. The cell viability was then quantified via the MTT assay.
smiles,measurement,setting,value
OCCOCCN(c1ccccc1)c1nc(N/N=C/c2cccc(I)c2)nc(N2CCOCC2)n1 [Compound 6J1],6J1-induced EVs secretion,4T1 cells; 4T1-shRab27A cells,significantly inhibits 6J1-induced EVs secretion
same,6J1-induced EVs secretion,"4T1 cells; PD-L1-knockout 4T1 cells, 24 h",does not affect 6J1-induced EVs secretion
same,6J1-induced decrease of cell surface PD-L1 levels,PD-L1; 4T1-shRab27A cells,does not influence the 6J1-induced decrease of cell surface PD-L1 levels
same,level of cell surface PD-L1,"PD-L1; 4T1 cells, 24 h",decreases the level of cell surface PD-L1
same,activity of Rab27a-GTPase,Rab27a,significantly increases the activity of Rab27a-GTPase
same,cell proliferation (cell number),[1]; 0.01-100 μM,inhibits cell proliferation in a concentration-dependent manner
same,cell proliferation at effective concentrations,"[1]; ≤1 μM, several cell types",only subtly inhibits cell proliferation

# Reference: US11986482B2, “Method of promoting antitumor or anti-cancer immunity” (City University of Hong Kong, priority 2021, dated 2024)
